Results as given in US11291643B2, “Methods of treating hypertriglyceridemia” (Amarin Pharmaceuticals Ireland Limited, priority 2011, dated 2022).

Legend:
Format in all cases: in vivo, human
[1] = tested on: patients with fasting triglyceride levels ≥500 mg/dL; test: 12-week placebo-controlled double-blind clinical study: fasting lipid parameters
Experimental: A multi-center, placebo-controlled randomized, double-blind, 12-week study with an open-label extension was performed to evaluate the efficacy and safety of AMR101 in patients with fasting triglyceride levels ≥500 mg/dL. The primary objective of the study was to determine the efficacy of AMR101 2 g daily and 4 g daily, compared to placebo, in lowering fasting TG levels in patients with fasting TG levels ≥500 mg/dL and ≤1500 mg/dL (≥5.65 mmol/L and ≤16.94 mmol/L). The population for this study was men and women (women of childbearing potential needed to be on contraception or practice abstinence) >18 years of age with a body mass index ≤45 kg/m^2 who were not on lipid-altering therapy or are currently on lipid-altering therapy. Patients currently on statin therapy (with or without ezetimibe) were evaluated by the investigator as to whether this therapy could be safely discontinued at screening, or if it should be continued. If statin therapy (with or without ezetimibe) was to be continued, dose(s) must be stable for ≥4 weeks prior to randomization. Patients taking non-statin, lipid-altering medications (niacin >200 mg/day, fibrates, fish oil, other products containing omega-3 fatty acids, or other herbal products or dietary supplements with potential lipid-altering effects), either alone or in combination with statin therapy (with or without ezetimibe), must have been able to safely discontinue non-statin, lipid-altering therapy at screening. Approximately 240 patients were sought to be randomized at approximately 50 centers in North America, South America, Central America, Europe, India, and South Africa. The study was be a 58- to 60-week, Phase 3, multi-center study consisting of 3 study periods: (1) A 6- to 8-week screening period that included a diet and lifestyle stabilization and washout period and a TG qualifying period; (2) A 12-week, double-blind, randomized, placebo-controlled treatment period; and (3) A 40-week, open-label, extension period. After confirmation of qualifying fasting TG values, eligible patients entered a 12-week, randomized, double-blind treatment period. At Visit 4 (Week 0), patients were randomly assigned to 1 of the following treatment groups: • AMR101 2 g daily, • AMR101 4 g daily, or • Placebo. Eligible patients were randomly assigned at Visit 4 (Week 0) to receive orally AMR101 2 g daily, AMR101 4 g daily, or placebo for the 12-week double-blind treatment period. AMR101 was provided in 1 g liquid-filled, oblong, gelatin capsules. The matching placebo capsule was filled with light liquid paraffin and contained 0 g of AMR101. During the double-blind treatment period, patients took 2 capsules (AMR101 or matching placebo) in the morning and 2 in the evening for a total of 4 capsules per day. Patients in the AMR101 2 g/day treatment group received 1 AMR101 1 g capsule and 1 matching placebo capsule in the morning and in the evening. Patients in the AMR101 4 g/day treatment group received 2 AMR101 1 g capsules in the morning and evening. The primary efficacy variable for the double-blind treatment period was percent change in TG from baseline to Week 12 endpoint. […]

[2] = tested on: patients with fasting triglyceride levels ≥500 mg/dL; test: Lipoprotein particle concentration by NMR spectroscopy in the clinical study; settings: for IDL particle concentration, median change from baseline / Large HDL particle concentration, median change from baseline / Large LDL particle concentration, median change from baseline / Large VLDL particle concentration, median change from baseline / Medium HDL particle concentration, median change from baseline / Medium VLDL particle concentration, median change from baseline / Small HDL particle concentration, median change from baseline / Small LDL particle concentration, median change from baseline / Small VLDL particle concentration, median change from baseline / Total HDL particle concentration, median change from baseline / Total LDL particle concentration, median change from baseline / Total VLDL particle concentration, median change from baseline: baseline to study end; for IDL particle concentration, end-of-treatment value (median) / Large HDL particle concentration, end-of-treatment value (median) / Large LDL particle concentration, end-of-treatment value (median) / Large VLDL particle concentration, end-of-treatment value (median) / Medium HDL particle concentration, end-of-treatment value (median) / Medium VLDL particle concentration, end-of-treatment value (median) / Small HDL particle concentration, end-of-treatment value (median) / Small LDL particle concentration, end-of-treatment value (median) / Small VLDL particle concentration, end-of-treatment value (median) / Total HDL particle concentration, end-of-treatment value (median) / Total LDL particle concentration, end-of-treatment value (median) / Total VLDL particle concentration, end-of-treatment value (median): study end
Experimental: (§1) Lipoprotein particle concentrations and sizes were measured with nuclear magnetic resonance spectroscopy in the above described clinical trial. Lipoprotein particle size and concentration parameters were obtained from fasting blood samples. Lipoprotein particle size and concentrations are measured by nuclear magnetic resonance (NMR) spectroscopy at LipoScience, Inc. (Raleigh, N.C.) using the LipoProfile-3 algorithm. VLDL, LDL, and HDL subclasses of different size were quantified from the amplitudes of their spectroscopically-distinct lipid methyl group NMR signals.
Concentrations of the following subclasses of lipoproteins were analyzed in this study: small LDL (18.0-20.5 nm), large LDL (20.5-23.0 nm), intermediate-density lipoprotein (IDL; 23.0-29.0 nm), large high-density lipoprotein (HDL; 9.4-14.0 nm), medium HDL (8.2-9.4 nm), small HDL (7.3-8.2 nm), large very-low-density lipoprotein (VLDL; >60 nm), medium VLDL (42-60 nm), and small VLDL (29-42 nm).
(§2) Subjects with missing baseline or Week 12 measurements, due to either missing laboratory samples or un-reportable values, were excluded from this analysis. The median difference of each lipoprotein particle variable (percent change from baseline) between each AMR101 treatment group and the placebo group was evaluated with a nonparametric test using the Hodges-Lehmann medians of the differences between treatment groups and the Wilcoxon rank-sum test (significance level 0.05). All statistical analyses were carried out using SAS 9.2 software.

[3] = tested on: patients with fasting triglyceride levels ≥500 mg/dL; test: Lipoprotein particle size by NMR spectroscopy in the clinical study; settings: for VLDL particle size, placebo-adjusted median percent change from baseline: Hodges-Lehmann median; for HDL particle size, median change from baseline / LDL particle size, median change from baseline / VLDL particle size, median change from baseline: baseline to study end; for HDL particle size, end-of-treatment value (median) / LDL particle size, end-of-treatment value (median) / VLDL particle size, end-of-treatment value (median): study end
Experimental: as §1, §2

[4] = 2 g/day vs placebo, Hodges-Lehmann median
[5] = 4 g/day vs placebo, Hodges-Lehmann median
[6] = 4 g/day vs placebo, stated as reduction

## CC/C=C\C/C=C\C/C=C\C/C=C\C/C=C\CCCC(=O)OCC [AMR101, ethyl eicosapentaenoate]
[1]; 2 g/day vs placebo, 12 weeks
  Apo B median percent change, AMR101 2 g/day vs. Placebo: −2.6%
  HDL-C median percent change, AMR101 2 g/day vs. Placebo: 1.5%
  LDL-C median percent change, AMR101 2 g/day vs. Placebo: 5.2%
  Lp-PLA2 median percent change, AMR101 2 g/day vs. Placebo: −5.1%
  Non-HDL-C median percent change, AMR101 2 g/day vs. Placebo: −8.1%
  TC median percent change, AMR101 2 g/day vs. Placebo: −6.8%
  TG median percent change, AMR101 2 g/day vs. Placebo: −19.7%
  VLDL-C median percent change, AMR101 2 g/day vs. Placebo: −15.3%
  VLDL-TG median percent change, AMR101 2 g/day vs. Placebo: −17.3%
[1]; 2 g/day, 12 weeks
  Apo B median percent change from baseline: 2.1%
  HDL-C median percent change from baseline: 0.0%
  LDL-C median percent change from baseline: −2.5%
  Lp-PLA2 median percent change from baseline: −5.1%
  Non-HDL-C median percent change from baseline: 0.0%
  TC median percent change from baseline: 0.7%
  TG median percent change from baseline: −7.0%
  VLDL-C median percent change from baseline: 0.0%
  VLDL-TG median percent change from baseline: −6.4%
[1]; 4 g/day vs placebo, 12 weeks
  Apo B median percent change, AMR101 4 g/day vs. Placebo: −8.5%
  HDL-C median percent change, AMR101 4 g/day vs. Placebo: −3.6%
  LDL-C median percent change, AMR101 4 g/day vs. Placebo: −2.3%
  Lp-PLA2 median percent change, AMR101 4 g/day vs. Placebo: −13.6%
  Non-HDL-C median percent change, AMR101 4 g/day vs. Placebo: −17.7%
  TC median percent change, AMR101 4 g/day vs. Placebo: −16.3%
  TG median percent change, AMR101 4 g/day vs. Placebo: −33.1%
  VLDL-C median percent change, AMR101 4 g/day vs. Placebo: −28.6%
  VLDL-TG median percent change, AMR101 4 g/day vs. Placebo: −25.8%
[1]; 4 g/day, 12 weeks
  Apo B median percent change from baseline: −3.8%
  HDL-C median percent change from baseline: −3.5%
  LDL-C median percent change from baseline: −4.5%
  Lp-PLA2 median percent change from baseline: −17.1%
  Non-HDL-C median percent change from baseline: −7.7%
  TC median percent change from baseline: −7.3%
  TG median percent change from baseline: −26.6%
  VLDL-C median percent change from baseline: −19.5%
  VLDL-TG median percent change from baseline: −25.2%
[1]; 4 g/day, previously reported, stated as reduction
  Reduction of median apolipoprotein B compared with placebo: 8.5%
[2]; [4]
  Small LDL particle concentration, placebo-adjusted median percent change from baseline: −12.8%
  Total HDL particle concentration, placebo-adjusted median percent change from baseline: −3.0%
  Total LDL particle concentration, placebo-adjusted median percent change from baseline: −1.1%
[2]; 2 g/day vs placebo, stated as reduction
  Reduction of small LDL particle concentration: 12.8%
[2]; 2 g/day, n = 63
  IDL particle concentration, median change from baseline: 0.8%
  Large HDL particle concentration, median change from baseline: −1.6%
  Large LDL particle concentration, median change from baseline: −20.9%
  Large VLDL particle concentration, median change from baseline: −2.5%
  Medium HDL particle concentration, median change from baseline: 3.9%
  Medium VLDL particle concentration, median change from baseline: 18.8%
  Small HDL particle concentration, median change from baseline: −3.2%
  Small LDL particle concentration, median change from baseline: 9.5%
  Small VLDL particle concentration, median change from baseline: 11.5%
  Total HDL particle concentration, median change from baseline: −3.3%
  Total LDL particle concentration, median change from baseline: 12.6%
  Total VLDL particle concentration, median change from baseline: 13.1%
  IDL particle concentration, end-of-treatment value (median): 144.0 nmol/L
  Large HDL particle concentration, end-of-treatment value (median): 2.3 µmol/L
  Large LDL particle concentration, end-of-treatment value (median): 51.0 nmol/L
  Large VLDL particle concentration, end-of-treatment value (median): 29.9 nmol/L
  Medium HDL particle concentration, end-of-treatment value (median): 8.7 µmol/L
  Medium VLDL particle concentration, end-of-treatment value (median): 93.8 nmol/L
  Small HDL particle concentration, end-of-treatment value (median): 21.5 µmol/L
  Small LDL particle concentration, end-of-treatment value (median): 1100 nmol/L
  Small VLDL particle concentration, end-of-treatment value (median): 53.9 nmol/L
  Total HDL particle concentration, end-of-treatment value (median): 33.4 µmol/L
  Total LDL particle concentration, end-of-treatment value (median): 1464 nmol/L
  Total VLDL particle concentration, end-of-treatment value (median): 190.1 nmol/L
[2]; [5]
  Large VLDL particle concentration, placebo-adjusted median percent change from baseline: −27.9%
  Small LDL particle concentration, placebo-adjusted median percent change from baseline: −25.6%
  Small VLDL particle concentration, placebo-adjusted median percent change from baseline: 5.3%
  Total HDL particle concentration, placebo-adjusted median percent change from baseline: −7.4%
  Total LDL particle concentration, placebo-adjusted median percent change from baseline: −16.3%
[2]; [6]
  Reduction of small LDL particle concentration: 25.6%
  Reduction of total LDL particle concentration (IDL, small LDL and large LDL particles): 16.3%
[2]; 4 g/day, n = 61
  IDL particle concentration, median change from baseline: 19.2%
  Large HDL particle concentration, median change from baseline: 8.3%
  Large LDL particle concentration, median change from baseline: −32.3%
  Large VLDL particle concentration, median change from baseline: −24.5%
  Medium HDL particle concentration, median change from baseline: −18.3%
  Medium VLDL particle concentration, median change from baseline: 36.4%
  Small HDL particle concentration, median change from baseline: −5.1%
  Small LDL particle concentration, median change from baseline: −9.7%
  Small VLDL particle concentration, median change from baseline: 4.3%
  Total HDL particle concentration, median change from baseline: −7.1%
  Total LDL particle concentration, median change from baseline: −0.1%
  Total VLDL particle concentration, median change from baseline: 15.2%
  IDL particle concentration, end-of-treatment value (median): 185.0 nmol/L
  Large HDL particle concentration, end-of-treatment value (median): 2.3 µmol/L
  Large LDL particle concentration, end-of-treatment value (median): 64.0 nmol/L
  Large VLDL particle concentration, end-of-treatment value (median): 21.2 nmol/L
  Medium HDL particle concentration, end-of-treatment value (median): 8.4 µmol/L
  Medium VLDL particle concentration, end-of-treatment value (median): 106.8 nmol/L
  Small HDL particle concentration, end-of-treatment value (median): 21.6 µmol/L
  Small LDL particle concentration, end-of-treatment value (median): 998.0 nmol/L
  Small VLDL particle concentration, end-of-treatment value (median): 52.5 nmol/L
  Total HDL particle concentration, end-of-treatment value (median): 30.8 µmol/L
  Total LDL particle concentration, end-of-treatment value (median): 1419 nmol/L
  Total VLDL particle concentration, end-of-treatment value (median): 200.3 nmol/L
[3]; 2 g/day vs placebo
  VLDL particle size, placebo-adjusted median percent change from baseline: −4.0%
[3]; 2 g/day, n = 63
  HDL particle size, median change from baseline: 0.0%
  LDL particle size, median change from baseline: 0.0%
  VLDL particle size, median change from baseline: −3.4%
  HDL particle size, end-of-treatment value (median): 8.9 nm
  LDL particle size, end-of-treatment value (median): 19.6 nm
  VLDL particle size, end-of-treatment value (median): 60.6 nm
[3]; 4 g/day vs placebo
  VLDL particle size, placebo-adjusted median percent change from baseline: −8.6%
[3]; 4 g/day, n = 60
  LDL particle size, median change from baseline: 0.0%
  LDL particle size, end-of-treatment value (median): 19.7 nm
[3]; 4 g/day, n = 61
  HDL particle size, median change from baseline: 1.1%
  VLDL particle size, median change from baseline: −8.6%
  HDL particle size, end-of-treatment value (median): 8.9 nm
  VLDL particle size, end-of-treatment value (median): 55.7 nm
